Tests used:
PHD2181-402 [1] = molecular target: T1, PHD2181-402 (Homo sapiens, UniProt Q9GZT9); assay: WaterLOGSY 1D NMR binding to PHD2181-402; settings: for binding to PHD2181-402 by WaterLOGSY: 10 mM SCFA, 25 μM PHD2181-402
T1 construct: made in house
From the text: Protons attached to C4 were selectively inverted and acted as source of magnetization transfer. […] (G) Protons attached to C2 were selectively inverted.
(§1) Measurements were repeated 3 times.
This method enables sensitive and robust detection of binding (dissociation constants as weak as μM to low mM) based on the magnetization transfer between water molecules, proteins, and ligands of interest in close proximity via dipolar proton-proton cross-relaxation (nuclear Overhauser effect, NOE). […] Binding and non-binding ligands can be distinguished in a WaterLOGSY spectrum via their opposite signs in relation to water for their corresponding peaks.
This technique allows for mapping of the ligand pharmacophore by monitoring the response of individual protons to an increase of ROEs contribution to the overall cross relaxation rate.

PHD2181-402 [2] = molecular target: T1, PHD2181-402; assay: microscale thermophoresis (MST) binding to PHD2181-402
From the text: as §1
Uncompetitive inhibitors only bind to the enzyme substrate complex, whereas noncompetitive inhibitors can bind to enzyme alone or enzyme substrate complex since the inhibitor has a unique binding site distinct from the substrate binding site. […] Thus, our findings indicate that butyrate functions as a noncompetitive PHD inhibitor with a unique binding site.

HIF-1α in T84 cells = assay: HIF stabilization by butyrate in T84 cells (HIF-1α target mRNA, HIF-1α protein); assay type: cell-based; settings: 4 h
Description: (C) Quantified densitometry of HIF-1α protein expression in T84 cells treated with 10 mM butyrate with or without 1 mM MCPA for 4 h

[3] = system: PHD (2-OG accumulation) in T84 IECs; assay: 2-OG levels in T84 cells as biomarker of PHD inhibition; assay type: cell-based; settings: 3 h
Description: (B) 2-OG concentrations in T84 cells treated with 10 mM butyrate with or without 1 mM MCPA or 30 μM IOX2 for 3 h
The relationship between butyrate and HIF, were examined whether butyrate influences PHD activity by monitoring 2-OG levels. […] In this, we considered such 2-OG accumulation as a metabolic biomarker of PHD inhibition (FIG. 3A).

[4] = system: HIF-1α in murine enteroids; assay: HIF stabilization in differentiated murine enteroids; assay type: cell-based; settings: 10 mM butyrate with or without 1 mM MCPA, 4 h
[5] = system: HIF-1α / PHDs in murine colon tissue; assay: rectal gavage of butyrate or IOX2 in antibiotic SCFA-depleted mice; assay type: in vivo; settings: 1 h, 100 mM butyrate, 1.5 mM IOX2
HIF1α in T84 cells = assay: HIF1α immunoblot in T84 cells (MBA vs BA); assay type: cell-based; settings: T84 cells
Description: (A) Structures of butyrate derivatives investigated in initial screen for HIF stabilization. Immunoblot of HIF1a protein levels in Caco-2 cells (B) and T84 cells (C) exposed to veh (HBSS+), […], or 5 mM butyrate derivatives for 6h. (D) Dose response study of HIF1a accumulation in T84 cells treated with decreasing concentrations of MBA and BA for 6 h.
(A) Immunoblots of HIF1a protein over time after exposure of T84 cells to 5 mM BA and MBA. (B) Mesoscale assay of HIF1a protein over time in caco-2 cells treated with 5 mM MBA compared to veh. (C) HIF1a and HIF target (BNIP3) protein in caco-2 cells exposed to veh (HBSS+), […] or 5 mM MBA. Data are presented as mean+S.E.M, *p<0.05, **p<0.01, ***p<0.001.
Endogenous and non-endogenous butyrate derivatives with specifically chosen functional groups at different positions within the small molecule and assess their effects on HIF stabilization (FIG. 21A). To study a small library of butyrate derivatives we employed an electrochemiluminescence based assay to quantify HIF1α levels using the Meso Scale Discovery (HIF1α MSD assay, http://www.mesoscale.com) technology. Similar to the sandwich enzyme-linked immunosorbent assay (ELISA), this technology captures and detects HIF1α protein using two specific antibodies but utilizes electrochemiluminescence-based signal generation and detection. Using lysates from intestinal epithelial cells (IECs) caco-2 and T84 exposed to a physiological relevant concentration of 5 mM butyrate derivatives for 4h, this assay was employed to determine HIF1α protein concentration. A bona-fide and potent PHD2 inhibitor (IOX4) was used to stabilize HIF1α as a positive control. Various butyrate derivatives increased HIF1α relative concentration in both cell lines compared to low signals detected in untreated lysates. […] We decided to focus on this interesting butyrate derivative for further studies.
To elucidate the effectiveness of MBA to stabilize HIF1α over time and possibly shine light on how quickly it can be metabolized in-vitro, time-course studies where performed between BA and MBA, IOX4 was used as a positive control. […] Employing the HIF1α MSD assay, we screened for various timepoints in caco-2 cell lysates exposed to MBA (5 mM). […] BNIP3 is involved in cell survival and is a known HIF1α target that is induced through chemical stabilization of HIF or hypoxia. BNIP3 promoter comprises a functional hypoxia response element (HRE) and can be activated by HIF1α.[5] Parallel to our HIF stabilization time course studies, we wanted to assess the transcriptional activity of the stabilized protein over time.

c2bbe cells = assay: epithelial barrier formation by transepithelial electrical resistance (TEER); assay type: cell-based; settings: 5 mM
Description: Barrier development in Caco-2 cells treated with Veh, BA or […] (5 mM); n=6. Data analyzed by Two-way ANOVA with Dunnett for post hoc correction and presented as mean±S.E.M, *p<0.05 **p<0.01, ***p<0.001, #BA, *MBA compared to veh in two independent experiments.
TEER of C2bbe cells exposed to 5 mM butyrate derivatives.
Therefore, we decided to study the effect of various butyrate derivatives in barrier function; in fact, sodium butyrate is an established pro-barrier factor. We studied epithelial barrier integrity through measurement of transepithelial electrical resistance (TEER), a typical assay for the quantitation of epithelial barrier strength. IEC c2bbe were exposed to butyrate derivatives (all at 5 mM) and TEERS were measured daily.

T1 sequence (Q9GZT9 181-402): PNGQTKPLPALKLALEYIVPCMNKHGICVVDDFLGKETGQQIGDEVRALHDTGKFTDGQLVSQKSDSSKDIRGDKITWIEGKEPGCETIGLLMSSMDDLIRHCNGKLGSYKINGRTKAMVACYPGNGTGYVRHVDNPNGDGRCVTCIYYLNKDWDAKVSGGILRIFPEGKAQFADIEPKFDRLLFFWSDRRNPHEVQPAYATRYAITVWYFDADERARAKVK

## CCCC(=O)O [Butyrate, Butyric acid]
PHD2181-402 [1]; listed as Butyric acid
  binding to PHD2181-402 by WaterLOGSY: indicating binding
PHD2181-402 [1]; listed as butyrate
  binding to PHD2181-402 by WaterLOGSY: indicative of binding
PHD2181-402 [1]; 10 mM butyrate, 25 μM PHD2181-402, with 150 μM 2-OG
  binding to the 2-OG and PHD2181-402 complex by WaterLOGSY: could not bind
PHD2181-402 [2]; 25 nM PHD2181-402, without 2-OG, read-out: dissociation constant (KD)
  Kd: 2000 ± 3000 µM
PHD2181-402 [2]; with 500 nM 2-OG
  binding to PHD2181-402 in the presence of 2-OG by MST: no butyrate binding
HIF-1α in T84 cells; 10 mM butyrate with 1 mM MCPA
  HIF stabilization in the presence of MCPA: still stabilized HIF
HIF-1α in T84 cells; 10 mM
  HIF-1α protein levels: increased
  HIF-1α target genes BNIP3, BNIP3L, GLUT1 mRNA: induction of HIF-1α target genes
[3]; 10 mM butyrate with 1 mM MCPA
  2-OG levels in the presence of MCPA: significantly increased
[3]; 10 mM butyrate, 30 μM IOX2
  2-OG levels compared to control: significantly increased
[4]
  HIF-1α protein expression: increased HIF-1α protein expression
  HIF-1α target gene expression: induced expression of HIF-1α target genes
[5]
  colon tissue 2-OG levels after antibiotics: rescued
  mRNA expression of HIF-1α targets Bnip3, Bnip3l, Glu1 after antibiotics: rescued
HIF1α in T84 cells; 5 mM BA and MBA, IOX4 positive control
  HIF1α stabilization over time (immunoblot): no longer stabilized at 48h
HIF1α in T84 cells; decreasing concentrations, 6 h
  dose response of HIF1α accumulation: quickly becomes ineffective
c2bbe cells
  barrier integrity over the course of the experiment: lose the integrity of their barrier

Reference: patent US20250235418A1, “Butyrate Analogues and Methods of Use for HIF Stabilization and Treatment of Bowel Disease” (THE REGENTS OF THE UNIVERSITY OF COLORADO, A BODY CORPORATE, priority 2022, published 2025)
